Reference: ChEMBL document CHEMBL1201862, “PubChem BioAssay data set” (2004)
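48-hour exposure; five concentrations; linearly interpolated endpoints. At the GI50, growth is halved.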 Calls of active or inactive are those of the source. Rule as the data show it: active = GI50 up to about 1.1 µM and inactive = higher.

Legend:
Assay in all cases: inhibition of tumour cell growth, NCI panel, 48 h
HT-29 = system: HT-29
K562 = system: K562
DMS-114 = system: DMS-114
M14 = system: M14
U-251 = system: U-251
LOX IMVI = system: LOX IMVI
HCT-116 = system: HCT-116
SNB-75 = system: SNB-75
DLD-1 = system: DLD-1
Malme-3M = system: Malme-3M
SF-539 = system: SF-539
RXF 393 = system: RXF 393
NCI-H226 = system: NCI-H226
NCI-H522 = system: NCI-H522
XF498 = system: XF498
UACC-62 = system: UACC-62
KM12 = system: KM12
HOP-62 = system: HOP-62
HL-60 = system: HL-60
HOP-18 = system: HOP-18
SNB-19 = system: SNB-19
SF-268 = system: SF-268
COLO 205 = system: COLO 205
DMS-273 = system: DMS-273
EKVX = system: EKVX
OVCAR-4 = system: OVCAR-4
SW-620 = system: SW-620
OVCAR-5 = system: OVCAR-5
HCT-15 = system: HCT-15
UO-31 = system: UO-31
TK-10 = system: TK-10
A498 = system: A498
SNB-78 = system: SNB-78
LXFL 529 = system: LXFL 529
RPMI-8226 = system: RPMI-8226
SR = system: SR
NCI-H460 = system: NCI-H460
IGROV-1 = system: IGROV-1
SF-295 = system: SF-295
SK-MEL-2 = system: SK-MEL-2
KM-20L2 = system: KM-20L2
SK-OV-3 = system: SK-OV-3
OVCAR-8 = system: OVCAR-8
NCI-H23 = system: NCI-H23
MOLT-4 = system: MOLT-4
786-0 = system: 786-0
CCRF-CEM = system: CCRF-CEM
SN12C = system: SN12C
CAKI-1 = system: CAKI-1
UACC-257 = system: UACC-257
SK-MEL-28 = system: SK-MEL-28
OVCAR-3 = system: OVCAR-3
M19-MEL = system: M19-MEL
A549 = system: A549
SK-MEL-5 = system: SK-MEL-5
ACHN = system: ACHN
HCC 2998 = system: HCC 2998
RXF 631 = system: RXF 631
HOP-92 = system: HOP-92

In the case of `O=C(CN(c1ccccc1)c1ccccc1)N1c2ccccc2C2C=CC=CC21` (stereo unspecified), the GI50 (HT-29) was 22.2 µM (inactive), the GI50 (K562) was 14.3 µM (inactive) and the GI50 (DMS-114) was 7.38 µM (inactive). The GI50 (M14) was 25.6 µM (inactive), the GI50 (U-251) was 21.3 µM (inactive) and the GI50 (LOX IMVI) was 18.2 µM (inactive). For the same compound, the GI50 (HCT-116) was 13.8 µM (inactive), the GI50 (SNB-75) was 18.1 µM (inactive) and the GI50 (DLD-1) was 25.6 µM (inactive). For the same compound, the GI50 (Malme-3M) was 21.6 µM (inactive), the GI50 (SF-539) was 18.8 µM (inactive) and the GI50 (RXF 393) was 30.5 µM (inactive). The GI50 (NCI-H226) was 18.5 µM (inactive), the GI50 (NCI-H522) was 18 µM (inactive) and the GI50 (XF498) was 19.6 µM (inactive). For the same compound, the GI50 (UACC-62) was 21.1 µM (inactive), the GI50 (KM12) was 27.3 µM (inactive) and the GI50 (HOP-62) was 20.1 µM (inactive). For the same compound, the GI50 (HL-60) was 7.23 µM (inactive), the GI50 (HOP-18) was 25.6 µM (inactive) and the GI50 (SNB-19) was 17.5 µM (inactive). For the same compound, the GI50 (SF-268) was 26.5 µM (inactive), the GI50 (COLO 205) was 11 µM (inactive) and the GI50 (DMS-273) was 22 µM (inactive). The GI50 (EKVX) was 24.3 µM (inactive), the GI50 (OVCAR-4) was 11.1 µM (inactive) and the GI50 (SW-620) was 23.7 µM (inactive). For the same compound, the GI50 (OVCAR-5) was 24 µM (inactive), the GI50 (HCT-15) was 16.7 µM and the GI50 (UO-31) was 30.1 µM (inactive). For the same compound, the GI50 (TK-10) was 24.3 µM (inactive), the GI50 (A498) was 32.4 µM (inactive) and the GI50 (SNB-78) was 36.8 µM (inactive). For the same compound, the GI50 (LXFL 529) was 16 µM (inactive), the GI50 (RPMI-8226) was 8.22 µM (inactive) and the GI50 (SR) was 0.579 µM (active). For the same compound, the GI50 (NCI-H460) was 19.3 µM (inactive), the GI50 (IGROV-1) was 21.3 µM (inactive) and the GI50 (SF-295) was 24.5 µM (inactive). The GI50 (SK-MEL-2) was 18.1 µM (inactive), the GI50 (KM-20L2) was 24.2 µM (inactive) and the GI50 (SK-OV-3) was 23.6 µM (inactive). The GI50 (OVCAR-8) was 20.7 µM (inactive), the GI50 (NCI-H23) was 23.2 µM (inactive) and the GI50 (MOLT-4) was 8.05 µM (inactive). For the same compound, the GI50 (786-0) was 22.6 µM (inactive), the GI50 (CCRF-CEM) was 9.42 µM (inactive) and the GI50 (SN12C) was 8.34 µM (inactive). For the same compound, the GI50 (CAKI-1) was 18.3 µM (inactive), the GI50 (UACC-257) was 18.3 µM (inactive) and the GI50 (SK-MEL-28) was 30.4 µM (inactive). The GI50 (OVCAR-3) was 17.4 µM (inactive), the GI50 (M19-MEL) was 21.5 µM (inactive) and the GI50 (A549) was 23.8 µM (inactive). For the same compound, the GI50 (SK-MEL-5) was 15.6 µM (inactive) and the GI50 (ACHN) was 24 µM (inactive).
With `Cc1ccc(NC(=O)CC2SC(=N)NC2=O)cc1C` (stereo unspecified) the GI50 (HT-29) was > 100 µM (inactive), the GI50 (K562) was > 100 µM (inactive) and the GI50 (M14) was > 100 µM (inactive). The GI50 (U-251) was 64.3 µM (inactive), the GI50 (HCC 2998) was 75 µM (inactive) and the GI50 (LOX IMVI) was > 100 µM (inactive). For the same compound, the GI50 (HCT-116) was > 100 µM (inactive), the GI50 (SNB-75) was > 100 µM (inactive) and the GI50 (DLD-1) was > 100 µM (inactive). The GI50 (Malme-3M) was > 100 µM (inactive), the GI50 (SF-539) was > 100 µM (inactive) and the GI50 (NCI-H226) was > 100 µM (inactive). For the same compound, the GI50 (NCI-H522) was > 100 µM (inactive), the GI50 (XF498) was > 100 µM (inactive) and the GI50 (UACC-62) was > 100 µM (inactive). For the same compound, the GI50 (KM12) was > 100 µM (inactive), the GI50 (HOP-62) was > 100 µM (inactive) and the GI50 (HL-60) was > 100 µM (inactive). The GI50 (SNB-19) was > 100 µM (inactive), the GI50 (SF-268) was > 100 µM (inactive) and the GI50 (COLO 205) was > 100 µM (inactive). The GI50 (OVCAR-4) was > 100 µM (inactive), the GI50 (SW-620) was > 100 µM (inactive) and the GI50 (OVCAR-5) was > 100 µM (inactive). For the same compound, the GI50 (HCT-15) was > 100 µM, the GI50 (UO-31) was > 100 µM (inactive) and the GI50 (TK-10) was > 100 µM (inactive). For the same compound, the GI50 (SNB-78) was > 100 µM (inactive), the GI50 (RXF 631) was > 100 µM (inactive) and the GI50 (LXFL 529) was > 100 µM (inactive). For the same compound, the GI50 (RPMI-8226) was > 100 µM (inactive), the GI50 (SR) was > 100 µM (inactive) and the GI50 (NCI-H460) was > 100 µM (inactive). For the same compound, the GI50 (IGROV-1) was > 100 µM (inactive), the GI50 (SF-295) was > 100 µM (inactive) and the GI50 (SK-MEL-2) was > 100 µM (inactive). For the same compound, the GI50 (KM-20L2) was > 100 µM (inactive), the GI50 (SK-OV-3) was > 100 µM (inactive) and the GI50 (OVCAR-8) was > 100 µM (inactive). The GI50 (NCI-H23) was > 100 µM (inactive), the GI50 (MOLT-4) was > 100 µM (inactive) and the GI50 (786-0) was > 100 µM (inactive). The GI50 (SN12C) was > 100 µM (inactive), the GI50 (CAKI-1) was > 100 µM (inactive) and the GI50 (UACC-257) was > 100 µM (inactive). For the same compound, the GI50 (SK-MEL-28) was > 100 µM (inactive), the GI50 (OVCAR-3) was > 100 µM (inactive) and the GI50 (HOP-92) was > 100 µM (inactive). The GI50 (A549) was > 100 µM (inactive) and the GI50 (ACHN) was > 100 µM (inactive).
